Source: US20090170947A1, “DISINFECTANT COMPOSITIONS, METHODS AND SYSTEMS” (priority 2007, published 2009)
Where a name gives a salt, the structure may show the parent alone.

Columns and labels:
C. albicans = assay: Checkerboard Titration, C. albicans; format: cell-based, Candida albicans; conditions: PHMB with EDTA(Na4)
Description: (§3) The method used was a NCCLS micro-dilution procedure
(§4) Fraction Inhibitory Concentration (FIC) is defined as the MIC of the compound in combination divided by the MIC of the compound alone. If the FIC index is <0.5, the combination is interpreted to be synergistic; <1 but >0.5—as partially synergistic; =1 as additive; >1 but <4 as indifferent; and ≧4 as antagonistic. In order to calculate the FIC index the following calculations are performed for compounds A and B: • FIC-A=(MIC of A in combination)/(MIC of A alone) • FIC-B=(MIC of B in combination)/(MIC of B alone) • FIC-combination=FIC-A+FIC-B

P. aeruginosa = assay: Checkerboard Titration, P. aeruginosa; format: cell-based, Pseudomonas aeruginosa; conditions: PHMB with EDTA(Na4)
Description: as §3, §4

[1] = test system: blood coagulation (clotting); assay: Prothrombin Time (PT) Assay; format: biochemical; conditions: concentration of TEDTA of 4 wt %; ISI 1.89
Description: Experiments were conducted to assess the anticoagulant capacities of PHMB, EDTA and combinations of PHMB and EDTA via a Prothrombin Time (PT) Assay. A PT assay (TM-4339-063) was conducted using a Coagulation Analyzer to obtain PT instead of manually recording the PT. Tetrasodium […]) was used (Alfa Aesar, Catalog #A17385, Lot #J9570A). […] […] […] INR is calculated as: INR=([…] sample/PTnormal control)^ISI ISI (International Sensitivity Index) indicates the sensitivity of individual thromboplastin. […] All the PTs greater than 3×the […] 1 (normal control) were replaced with 32 seconds.

S. aureus = assay: Checkerboard Titration, S. aureus; format: cell-based, Staphylococcus aureus; conditions: PHMB with EDTA(Na4)
Description: The following concentrations were tested: Fraction Inhibitory Concentration (FIC) is defined as the MIC of the compound in combination divided by the MIC of the compound alone. […] In order to calculate the FIC index the following calculations are performed for compounds A and B: • FIC-A=(MIC of A in combination)/(MIC of A alone) • FIC-B=(MIC of B in combination)/(MIC of […]

[2] = humans; doses of up to 3000 mg infused over 3 hours, daily; cited from earlier work
[3] = test system: Candida Albicans (Organism #10231); assay: MIC/MBC micro-dilution at pH 7, C. albicans; format: cell-based; conditions: pH of 7
Description: (§1) In order to determine MIC (minimum inhibitory concentration) and MBC (minimum bactericidal concentration) a National Committee on Clinical Laboratory Standards (NCCLS) micro-dilution procedure was followed. According to the procedure each formulation must be exposed to 6 log concentration of organism or the highest achievable concentration. In the current protocol 100 μL of MHB was mixed with 90 μL of formulation and 10 μL of log 8 organism or the highest achievable concentration. The concentration of the formulation was adjusted to obtain the required concentration in the final solution. The mixture was incubated at 37 degree C. for 16-24 hrs. After 16-24 hours the absorbance value was read at 600 nm. The obtained data was corrected by subtracting the appropriate blanks. Finally, the wells having an absorbance >0.1 were marked + and <0.1 were marked −. The +symbol indicated growth while −symbol indicates no growth.
(§2) Staphylococcus aureus (Organism #25923), Pseudomonas aeruginosa (Organism #27853), and Candida Albicans (Organism #10231) was obtained from ATCC. […] These solutions were then serially diluted as necessary to obtain the required concentrations.

[4] = test system: Pseudomonas aeruginosa (Organism #27853); assay: MIC/MBC micro-dilution at pH 7, P. aeruginosa; format: cell-based; conditions: pH of 7
Description: as §1, §2

[5] = test system: Staphylococcus aureus (Organism #25923); assay: MIC/MBC micro-dilution at pH 7, S. aureus; format: cell-based; conditions: pH of 7
Description: as §1, §2

[6] = rabbit, in vivo; cited from earlier work

Compound: O=C([O-])CN(CCN(CC(=O)[O-])CC(=O)[O-])CC(=O)[O-].[Na+].[Na+].[Na+].[Na+] [EDTA(Na4), EDTA, tetrasodium salt hydrate]
- FIC of the single component (MIC in combination / MIC alone) (C. albicans): 0.3
- FIC of the single component (MIC in combination / MIC alone) (P. aeruginosa): 0.25
- International Normalized Ratio (INR) [1]: greater than 7.25
- FIC of the single component (MIC in combination / MIC alone) (S. aureus): 0.4

Compound: O=C([O-])CN(CCN(CC(=O)[O-])CC(=O)O)CC(=O)O.[Na+].[Na+] [EDTA disodium]
- Tolerability [2]: well tolerated

Compound: O=C(O)CN(CCN(CC(=O)O)CC(=O)O)CC(=O)O [EDTA, EDTA, tetrasodium salt hydrate]
- MIC [3]: > 4.0 wt %
- MBC [4]: < 4.00 wt %
- MIC [4]: < 0.25 wt %
- MBC [5]: < 0.13 wt %
- MIC [5]: < 0.03 wt %

Compound: Poly(hexamethylenebiguanide) [PHMB]
- NOAEL [6]: NOAEL = 20 mg/kg/day
